{"source": "paper PMC8969271", "about": "“Release of moth pheromone compounds from Nicotiana benthamiana upon transient expression of heterologous biosynthetic genes” (BMC Biology, 2022)", "assay_type_in_all_cases": "cell-based", "key": {"CsupKPSE": {"target": "T1, CsupKPSE (Chilo suppressalis, UniProt A0A5Q0V425)", "T1 construct": "full-length ORF 1059 nt, 353 aa; synthesized gene; expressed in S. cerevisiae ole1/elo1 and N. benthamiana leaves", "T1 sequence (A0A5Q0V425 20-371)": "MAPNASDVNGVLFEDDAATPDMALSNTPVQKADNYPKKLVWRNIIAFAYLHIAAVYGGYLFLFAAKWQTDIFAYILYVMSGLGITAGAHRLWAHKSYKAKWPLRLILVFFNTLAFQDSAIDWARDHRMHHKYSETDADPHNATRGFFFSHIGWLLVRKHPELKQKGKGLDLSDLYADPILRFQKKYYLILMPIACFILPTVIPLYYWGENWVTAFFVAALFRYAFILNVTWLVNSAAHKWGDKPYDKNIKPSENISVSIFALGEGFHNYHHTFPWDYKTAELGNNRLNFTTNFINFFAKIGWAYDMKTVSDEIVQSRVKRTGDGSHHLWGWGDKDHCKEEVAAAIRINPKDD", "experiment": "heterologous expression in yeast and N. benthamiana, GC/MS of fatty acid methyl esters", "conditions": "endogenous palmitic acid (acyl form in cells, presumably acyl-CoA); product (Z)-9-hexadecenoic acid"}, "CsupFAR2 [1]": {"target": "T2, CsupFAR2 (Chilo suppressalis, UniProt A0A3S2LS93)", "T2 construct": "full-length ORF 1404 nt, 468 aa; synthesized gene; expressed in S. cerevisiae INVSc (pYES52) and N. benthamiana leaves", "T2 sequence (A0A3S2LS93 1-468)": "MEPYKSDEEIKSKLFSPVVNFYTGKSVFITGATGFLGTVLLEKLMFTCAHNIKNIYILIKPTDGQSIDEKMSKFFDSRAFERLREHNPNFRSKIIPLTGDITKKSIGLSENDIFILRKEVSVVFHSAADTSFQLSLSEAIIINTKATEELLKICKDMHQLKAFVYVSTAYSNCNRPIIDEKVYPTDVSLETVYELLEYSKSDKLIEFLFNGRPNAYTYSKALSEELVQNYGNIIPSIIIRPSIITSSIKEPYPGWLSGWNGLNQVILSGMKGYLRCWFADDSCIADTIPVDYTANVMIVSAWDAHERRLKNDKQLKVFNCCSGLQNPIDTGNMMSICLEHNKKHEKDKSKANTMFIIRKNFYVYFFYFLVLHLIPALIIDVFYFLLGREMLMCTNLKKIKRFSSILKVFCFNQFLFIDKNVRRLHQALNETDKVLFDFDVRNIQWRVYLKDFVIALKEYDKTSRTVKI", "experiment": "co-expression with CsupKPSE in N. benthamiana leaves, GC/MS of fatty alcohols", "conditions": "acyl form in cells, presumably acyl-CoA; product (Z)-9-hexadecenol"}, "ATF1": {"target": "T3, ATF1 (Saccharomyces cerevisiae, UniProt P40353)", "T3 construct": "expressed transiently in N. benthamiana leaves with AtrΔ11, CpuFatB1, CsupYPAQ and CsupFAR2", "T3 sequence (P40353 1-525)": "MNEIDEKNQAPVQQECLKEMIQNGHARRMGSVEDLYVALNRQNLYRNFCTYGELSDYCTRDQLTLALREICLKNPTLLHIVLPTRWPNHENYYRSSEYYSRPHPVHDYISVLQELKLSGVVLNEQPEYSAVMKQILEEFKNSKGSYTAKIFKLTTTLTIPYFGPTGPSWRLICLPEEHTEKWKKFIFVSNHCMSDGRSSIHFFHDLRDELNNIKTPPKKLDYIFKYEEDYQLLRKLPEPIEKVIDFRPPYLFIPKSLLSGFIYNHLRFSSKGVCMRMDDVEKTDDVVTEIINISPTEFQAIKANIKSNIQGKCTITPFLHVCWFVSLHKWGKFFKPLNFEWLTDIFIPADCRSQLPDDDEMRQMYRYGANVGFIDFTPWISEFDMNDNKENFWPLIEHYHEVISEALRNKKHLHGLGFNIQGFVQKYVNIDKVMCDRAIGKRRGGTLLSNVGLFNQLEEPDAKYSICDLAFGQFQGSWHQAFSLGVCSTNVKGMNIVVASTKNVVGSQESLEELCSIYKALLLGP", "experiment": "co-expression with desaturases and CsupFAR2 in N. benthamiana leaves, SPME and GC/MS", "conditions": "endogenous acetyl donor; product (Z)-11-hexadecenyl acetate"}, "CsupFAR2 [2]": {"target": "T2, CsupFAR2", "experiment": "heterologous expression in yeast and N. benthamiana, GC/MS of fatty alcohols", "conditions": "yeast supplemented with methyl (Z)-11-hexadecenoate or co-expressing CsupYPAQ; acyl form in cells, presumably acyl-CoA; product (Z)-11-hexadecenol"}}}
{"smiles": "CCCCCCCCCCCCCCCC(=O)O", "note": "[16:acid, palmitic acid]", "values": [{"measurement": "heterologous expression in yeast and N. benthamiana, GC/MS of fatty acid methyl", "setting": "CsupKPSE", "result": "CsupKPSE producing Z9-16:acid, the precursor of the minor pheromone component from palmitic acid"}]}
{"smiles": "CCCCCC/C=C\\CCCCCCCC(=O)O", "note": "[Z9-16:acid, (Z)-9-hexadecenoic acid]", "values": [{"measurement": "co-expression with CsupKPSE in N. benthamiana leaves, GC/MS of fatty alcohols", "setting": "CsupFAR2 [1]", "result": "a minor amount of (Z)-9-hexadecenol (Z9-16:OH) was produced"}]}
{"smiles": "CCCC/C=C\\CCCCCCCCCCO", "note": "[Z11-16:OH, (Z)-11-hexadecenol]", "values": [{"measurement": "co-expression with desaturases and CsupFAR2 in N. benthamiana leaves, SPME and G", "setting": "ATF1", "result": "Upon co-expression of the acetyltransferase gene ATF1, Z11-16:OAc was also released together with Z11-16:OH"}]}
{"smiles": "CCCC/C=C\\CCCCCCCCCC(=O)O", "note": "[Z11-16:acid, (Z)-11-hexadecenoic acid]", "values": [{"measurement": "heterologous expression in yeast and N. benthamiana, GC/MS of fatty alcohols", "setting": "CsupFAR2 [2]", "result": "it reduced the C. suppressalis pheromone precursors Z11-16:acid, Z9-16:acid"}]}
